Data on five compounds can be found in patent US12371459B2, “Antimicrobial peptide derived from Pseudin-2 peptide and uses thereof” (INDUSTRY-ACADEMIC COOPERATION FOUNDATION, CHOSUN UNIVERSITY, priority 2019, dated 2025).

“And” between values parts separate entries of the source, which are not always exact repeats. Identical values can stand only once. Ends that are not written are not given here.

For data set [1], the system named is P. aeruginosa (ATCC 27853). Conditions: 24 hours at 37° C.
Data set [2] deals with S. aureus (CCARM 3518). Conditions: 24 hours at 37° C.
The subject of data set [3] is E. coli (ATCC 25922). The following applies: 24 hours at 37° C.
Data set [4] concerns E. coli (CCARM 1229). The following applies: 24 hours at 37° C.
The subject of data set [5] is S. aureus (ATCC 25923). Conditions: 24 hours at 37° C.
Data set [6] relates to P. aeruginosa 4007. Conditions: P. aeruginosa 4007, 24 hours at 37° C.
In data set [7] the test system is E. coli (CCARM 1238). Conditions: 24 hours at 37° C.
Data set [8] concerns P. aeruginosa 4891. Conditions: P. aeruginosa 4891, 24 hours at 37° C.
The subject of data set [9] is S. aureus (CCARM 3090). Conditions: 24 hours at 37° C.
Data set [10] can be described thus: Cytotoxicity in normal cell line (MTT). The following applies: human, HaCaT keratinocyte cells. Here is the method:
(§1) To determine the cytotoxicity of the peptides produced by the method of Example 1 in normal cell line, cytotoxicity was measured by using human keratinocyte cell line (HaCaT cell line, Dr. N E. Fusenig, Heidelberg, Germany).
(§2) Specifically, HaCaT cells, which have been cultured in DMEM medium containing 10% FBS (fetal bovine serum), were aliquoted in a microtiter plate to have 2×10^5 cells per well. […] Twenty-four hours later, a reaction solution containing 0.5 mg/ml MTT (thiazolyl blue tetrazolium bromide) dissolved in phosphate buffered saline (PBS) was added in an amount of 100 μl to each well and the reaction was allowed to occur for 4 hours. After that, the supernatant was discarded, and, by dissolving MTT crystals that are formed by adding 200 μl DMSO (dimethyl sulfoxide), the absorbance at 560 nm was measured to determine the cell survival ability.

Data set [11] concerns erythrocytes of a mouse (Balb/c). The data set is described as follows: Erythrocyte hemolytic activity. The following applies: 1 hour at 37° C. Here is the method: To compare the cytotoxicity among the peptides that are produced by the method of Example 1, erythrocyte hemolytic activity of the synthesized peptide was measured.
After that, the amount of hemoglobin contained in a supernatant collected by centrifuge at 1,000×g was determined by measuring the absorbance at a wavelength of 414 nm. As a control to be used as a reference for cell disruption level, the supernatant collected by a treatment with 1% Triton X-100 (Sigma, USA) and a reaction for 1 hour at 37° C. was used to measure the absorbance. By setting the resulting absorbance value at 100% of the erythrocyte hemolytic activity, hemolysis of each peptide was calculated using the following equation 1. Erythrocyte disrupting ability (%)=(Absorbance A−Absorbance B)/(Absorbance C−Absorbance B)×100 Equation 1 (in the above equation, Absorbance A indicates the absorbance of a reaction solution treated with each peptide, in which the absorbance is measured at a wavelength of 414 nm; Absorbance B indicates the absorbance of a reaction solution treated with PBS, in which the absorbance is measured at a wavelength of 414 nm; and Absorbance C indicates the absorbance of a reaction solution treated with 1% Triton X-100, in which the absorbance is measured at a wavelength of 414 nm).

In data set [12] the test system is plasmid DNA (pRSETB). The data set is described as follows: Binding between antimicrobial peptide and DNA (agarose gel electrophoresis). The following applies: plasmid DNA 300 ng, peptide/DNA ratio 0.25:1 to 4:1, 10 minutes at 37° C. Here is the method: Specifically, plasmid DNA (pRSETB, 300 ng) and the peptide were reacted for at different ratio (i.e., peptide/DNA ratio was 0 (DNA only), 0.25:1, 0.5:1, 1:1, 1.5:1, 2:1, 3:1, or 4:1) for 10 minutes at 37° C. After that, electrophoresis was carried out using 1% agarose gel followed by staining with ethidium bromide (EtBr) and UV determination.

Data set [13] deals with Escherichia coli. Kind of data set: Scanning electron microscopy (SEM), membrane damage. The following applies: peptide at MIC, 1 hour at 37° C. The data set is classed as cell-based. Here is the method:
(§3) As a control, cells applied with no peptide were used. After the culture, the cells were collected, and, by using 2.5% glutaraldehyde, the bacterial cells were treated for 18 hour at 4° C. After carrying out washing two times with PBS buffer solution, the fixed cells were dehydrated in stepwise manner by using 100% ethanol and diluted ethanol (50%, 70%, 90% and 100%). After the dehydration followed by drying, the specimen was coated with platinum and determination was made by low vacuum scanning electron microscopy.

For data set [14], the system named is Staphylococcus aureus. The data set is described as above. The class given is cell-based. Conditions: peptide at MIC, 1 hour at 37° C. The method, then:
as §3

For data set [15], the system named is Escherichia coli. The data set is described as follows: Flow cytometry, propidium iodide, effect on bacteria membrane. The data set is classed as cell-based. The following applies: peptide at MIC. Here is the method: (§4) After that, the supernatant was removed by centrifuge (10,000 rpm) and stained with propidium iodide (PI, concentration of 10 μg/ml) for 30 minutes at 4° C. Thereafter, unbound propidium iodide was removed by centrifuge, and the problem of cell aggregation phenomenon was solved by adding physiological saline (PBS) in an amount of 1 ml.
On the technique in general: Flow cytometry measures light scatter and fluorescence of single cells or particles in a stream.

In data set [16] the test system is Staphylococcus aureus. The description is as above. The class given is cell-based. The following applies: peptide at MIC. The method, then: as §4
Data set [17] has as its system human keratinocyte cell line (HaCaT). The data set is described as follows: in vitro. Conditions: HaCaT keratinocyte cells, 24 h, 100 µM. Here is the method: as §1, §2
Data set [18] concerns Salmonella typhimurium KCTC 1926. Conditions: KCTC 1926, 18 h. An excerpt: (§5) To compare the antimicrobial activity among the peptides produced by the method of Example 1, the inventors of the present invention measured the minimal growth inhibitory concentration (MIC), which is minimum concentration of the peptide not allowing any […] of bacterial cells.
(§6) Specifically, the bacterial strains described in the following Table 2 were purchased and cultured to a mid-log phase in a medium that is appropriate for each strain. […] After the addition to a plate, the cells were cultured for 18 hours at 37° C. […] As a control, Pseudin-2 as a mother peptide was used.

Data set [19] relates to Pseudomonas aeruginosa isolated strain 4891 (tolerance to antibiotics).
Source text: as §5, §6

Data set [20] has as its system Staphylococcus aureus CCARM 3518 (tolerance to antibiotics).
Source text: as §5, §6

For data set [21], the system named is Candida albicans KCTC 7270. The following applies: KCTC 7270, 18 h.
Source text: as §5, §6

Data set [22] concerns Escherichia coli ATCC 25922. The following applies: ATCC 25922, 18 h.
Source text: as §5, §6

The test system of data set [23] is Trichosporon beigelii KCTC 7707. Conditions: KCTC 7707, 18 h.
Source text: as §5, §6

For data set [24], the system named is Escherichia coli CCARM 1238 (tolerance to antibiotics).
Source text: as §5, §6

The subject of data set [25] is Listeria monocytogenes KCTC 3710. Conditions: KCTC 3710, 18 h.
Source text: as §5, §6

Data set [26] concerns Pseudomonas aeruginosa ATCC 27853. Conditions: ATCC 27853, 18 h.
Source text: as §5, §6

Data set [27] deals with Staphylococcus aureus ATCC 25923. The following applies: ATCC 25923, 18 h.
Source text: as §5, §6

Data set [28] deals with Escherichia coli CCARM 1229 (tolerance to antibiotics).
Source text: as §5, §6

Data set [29] concerns Staphylococcus aureus CCARM 3090 (tolerance to antibiotics).
Source text: as §5, §6

For data set [30], the system named is Bacillus subtilis KCTC 1998. The following applies: KCTC 1998, 18 h.
Source text: as §5, §6

Data set [31] concerns Pseudomonas aeruginosa isolated strain 4007 (tolerance to antibiotics).
Source text: as §5, §6

Turning to `O=C(O)c1cn(C2CC2)c2cc(N3CCNCC3)c(F)cc2c1=O` [Ciprofloxacin], the “Biofilm minimal inhibitory concentration” value in data set [1] was 2 µM; in [2], more than 400 µM; in [3] it was 2 µM; in data set [4], 128 µM; in data set [5], 4 µM; in data set [6] it was more than 400 µM. The “Biofilm minimal inhibitory concentration” value in data set [7] was 128 µM; in data set [8], more than 400 µM; in [9], more than 400 µM.
With “GLNALKKVFQGIHEAIKLINNHVQ-NH2 [Pseudin-2]”, in [10], the viability at 24 h, 3.13 µM was 100%; the viability at 24 h, 6.25 µM is 100%; the viability at 24 h, 12.5 µM is 100%; the viability at 24 h, 25 µM was 100%. In data set [10], this compound gave a viability at 24 h, 50 µM of 100% and a viability at 24 h, 100 µM of 82.1%. In addition, the Erythrocyte disrupting ability in [11] (peptide concentration 3.13 μM) is 0%. In addition, the Erythrocyte disrupting ability in [11] (peptide concentration 6.25 μM) came to 0%. The Erythrocyte disrupting ability in [11] (peptide concentration 12.5 μM) amounted to 0%. Besides, in [11] (peptide concentration 25 μM), the Erythrocyte disrupting ability amounted to 0%. In [11] (peptide concentration 50 μM), the Erythrocyte disrupting ability worked out at 3.2%. Also, the Erythrocyte disrupting ability in data set [11] (peptide concentration 100 μM) was 10% and 10.1%. In data set [12], the “Binding to DNA” value was “did not show any binding to DNA”.
With LNALKKVFQGIHEAIKKI-NH2 [Pse-T3], the “Membrane damage by SEM” value in data set [13] is “rougher than the cells treated with Pseudin-2”; in [14], “higher damage and disruption of cell membrane”. For the same compound, the viability at 24 h, 3.13 µM in [10] is 100%. Besides, the viability at 24 h, 6.25 µM in [10] was determined as 100%. In [10], this compound yielded a viability at 24 h, 12.5 µM of 100%. In data set [10], this compound came in with a viability at 24 h, 25 µM of 100%. In data set [10], this compound registered a viability at 24 h, 50 µM of 100%. In addition, the viability at 24 h, 100 µM in data set [10] was determined as 90.3%. Moreover, the “Membrane disrupting ability compared with Pseudin-2” value in [15] and in data set [16] was “higher membrane disrupting ability than Pseudin-2” each time. The Erythrocyte disrupting ability in data set [11] (peptide concentration 3.13 μM) came out at 0%; in data set [11] (peptide concentration 6.25 μM), 0%; in [11] (peptide concentration 12.5 μM), 0%; in data set [11] (peptide concentration 25 μM), 0.5%; in [11] (peptide concentration 50 μM), 2.2%; in [11] (peptide concentration 100 μM), 5.6%. The “Binding to DNA” value in data set [12] was “showed binding to DNA”.
LNALKKVFQGIHEAIKLI-NH2 [Pse-T1] displayed a viability at 24 h, 3.13 µM in data set [10] of 100%. Also, the viability at 24 h, 6.25 µM in data set [10] stood at 100%. Further, in data set [10], the viability at 24 h, 12.5 µM amounted to 100%. The compound further registered a viability at 24 h, 25 µM in [10] of 100%. The same compound displayed a viability at 24 h, 50 µM in data set [10] of 98.8%. For the same compound, in data set [10], the viability at 24 h, 100 µM is 86.2%. The “Membrane disrupting ability compared with Pseudin-2” value in data set [15] and in [16] was “higher membrane disrupting ability than Pseudin-2” throughout. The Erythrocyte disrupting ability was found to be 0% in [11] (peptide concentration 3.13 μM); 0% in [11] (peptide concentration 6.25 μM); 0% in data set [11] (peptide concentration 12.5 μM); 0% in [11] (peptide concentration 25 μM); 3.9% in data set [11] (peptide concentration 50 μM); 12.3% in [11] (peptide concentration 100 μM). For the same compound, the “Binding to DNA” value in data set [12] is “showed binding to DNA”.
For the compound “WLNALKKVWQGIHEAIKLIWNWVQ-NH2 [Pse-Anal4]”, the Cell survival ability in [17] stood at 10.8%. The viability at 24 h, 3.13 µM in data set [10] (Cell survival ability) stood at 46.1%. In [10] (Cell survival ability), this compound came in with a viability at 24 h, 6.25 µM of 35.1%. This compound also displayed a viability at 24 h, 12.5 µM in data set [10] (Cell survival ability) of 25.4%. The viability at 24 h, 25 µM in [10] (Cell survival ability) amounted to 20.8%. Further, the viability at 24 h, 50 µM in data set [10] (Cell survival ability) is 15.3%. Further, the viability at 24 h, 100 µM in data set [10] (Cell survival ability) came out at 10.1%. In addition, the Minimal inhibitory concentration in data set [18] came to 16 µM; in data set [19], 64 µM; in data set [20] it was 32 µM; in data set [21], 32 µM; in [22], 16 µM; in data set [23] it was 32 µM. For the same compound, the Minimal inhibitory concentration in data set [24] worked out at 32 µM; in [25] it was 32 µM; in data set [26] it was 16 µM; in data set [27], 32 µM; in data set [28], 32 µM; in data set [29] it was 32 µM. Moreover, the Minimal inhibitory concentration in data set [30] was 32 µM; in data set [31] it was 64 µM.

Usually viability stands for the share of living cells, or the viability signal relative to a control.
